Records with an inconclusive call do not appear. Calls of active or inactive are those of the source. How the calls were made is not given here.
Tested on: not listed separately
Assay: inhibitors of non-replicating M. tuberculosis, dose response, luciferase, dry powder (AID 743183)
Details: non-replicating M. tuberculosis, luciferase reporter luminescence; at 38 µM (top of the series)

Compound | activity change, negative = inhibition
Cc1ccc(C)c(-c2csc(NC(=O)c3cnccn3)n2)c1 | -66.6% (inactive)
CCOC(=O)CNC(=O)N1c2ccccc2Sc2ccccc21 | -75.4% (inactive)
O=C(OCc1ccc(Cl)c(Cl)c1)c1ccccn1 | -46.6% (inactive)
N#Cc1nc(-c2cccs2)oc1NCCc1ccccc1 | -87.4% (inactive)

Tested on: non-replicating M. tuberculosis, luciferase reporter luminescence
Assay: as above
Details: not given

Compound | AC90
NC(=O)C1(N2CCCCC2)CCN(C2CC(=O)N(CCc3ccccc3)C2=O)CC1 (configuration not stated) | 22.3 µM
Brc1c(-c2ccc3c(c2)OCO3)nc2ncccn12 | 12.9 µM
Cc1cc(C)n2nc(S(=O)(=O)Nc3c(Cl)cccc3Cl)nc2n1 | 5.45 µM
COC(=O)COc1ccc2c(=O)c(Oc3ccccc3)c(C)oc2c1 | 2.94 µM
CCOC(=O)COc1ccc2c(=O)cc(-c3ccccc3)oc2c1 | 2.9 µM
O=C(NC1CC2CCC1C2)C1COc2ccccc2O1 (configuration not stated) | 1.39 µM
O=C(CCN1CCC(c2cccs2)=N1)c1cccs1 | 14.3 µM
Clc1cccc(CNCCNCc2cccc(Cl)c2)c1 | 19.4 µM
CS(=O)(=O)Cc1nc2ccccc2oc1=O | 38.6 µM
O=C(COc1cccc2ccccc12)Nc1nc2ccccc2[nH]1 | 6.61 µM
CCOC(=O)COc1ccc2c(=O)c(-c3ccccc3)coc2c1 | 3.65 µM
O=C(Nc1nc2ccccc2[nH]1)c1cccc(Cl)c1 | 4.96 µM
c1ccc(Nc2nc(-c3ccccn3)cs2)cc1 | 1.95 µM
CCOC(=O)COc1ccc(C(=O)NC2CCCCC2)cc1 | 8.93 µM
COC(=O)COc1cccc(NC(=O)c2ccc(Cl)cc2)c1 | 11.7 µM
CCOC(=O)COc1ccc2c(c1)C(=O)CC1(CCCCC1)O2 | 5.77 µM
O=C(COc1c(Br)cc(Br)c2cccnc12)N1CCCCC1 | 7.78 µM

Compound | AC90
Cc1cccc(Cn2ccc(NC(=O)c3ccc4c(c3)OCO4)n2)c1 | 9.73 µM
O=C(NCc1cccs1)c1ccc(Br)o1 | 5.8 µM
CCc1ccc(OCCCC(=O)NCc2ccco2)cc1 | 31.8 µM
Cc1cc(NC(=O)C2CCCCC2)n(-c2nc3ccccc3[nH]2)n1 | 12.9 µM
Fc1ccc(-c2ccc(CNCc3ccccn3)o2)cc1Cl | 13.7 µM
CCOC(=O)c1cc(-c2csc(COc3ccccc3Cl)n2)on1 | 4.52 µM
CCCOC(=O)c1ccc(NC(=O)c2ccc(Br)o2)cc1 | 7.14 µM
NC1CCN(c2c(F)cc3c(=O)c(C(=O)O)cn(C4CC4)c3c2Cl)C1 (configuration not stated) | 2.04 µM
O=C(CCc1ccccc1)NC1C2CC3CC(C2)CC1C3 (configuration not stated) | 10.3 µM
Cc1cccc(C)c1N1C(=O)CC(N2CCSCC2)C1=O (configuration not stated) | 4.7 µM
Clc1cccc(-c2ccc(CNCc3ccccn3)o2)c1 | 16.3 µM
Cc1nnc(NC(=O)c2ccc3ccccc3c2)o1 | 0.372 µM
CCCCN(C/C=C/c1ccccc1OC)Cc1ccccc1 | 24.6 µM
CCOC(=O)c1cc(-c2csc(COc3ccccc3)n2)on1 | 6.95 µM
C=CCn1c(NC(=O)c2ccccc2)nc2ccccc21 | 7.69 µM
CCOCCOC(=O)COc1ccc2c(-c3ccccc3)cc(=O)oc2c1 | 8.82 µM
